From patent publication US20250376497A1, “ARTIFICIAL PROTEIN AND USES THEREOF” (priority 2022, published 2025)
pEC50: −log10 of the molar value. Where “and” joins values, the source holds several entries; their conditions need not be identical. Equal entries are not always repeated. Entries after “also recorded” stand apart in the source; their conditions may differ. Bridge positions count the residues as written; N and C are the ends. Ends that are not written are not given here.

Assays:
OX-KO mice [1] = test: Wakefulness and sleep (EEG/EMG) after intracerebroventricular infusion in OX-KO mice; type: in vivo, mouse; settings: ICV 160 μM at 5 μL/h, ZT0-6, vs vehicle (artificial cerebrospinal fluid)
Method: Wakefulness, non-REM sleep (NREM) and REM sleep are expressed as a percentage of the recording time. V: vehicle (artificial cerebrospinal fluid). OX-D: OX-DRAGON. TAT: TAT peptide. ZT: Zeitgeber time (i.e., time since lights were switched on). Black bars: intracerebroventricular infusion (5 μL/h from ZT0 to ZT6, with vehicle or peptides at 160 μM). * and †: P<0.05, Wilcoxon test with exact significance (Monte Carlo method) vs. vehicle (with correction for false-discovery rate) or vs. OX-DRAGON, respectively.
(§1) A biocompatible acrylic resin protection for was applied to the animal's head to protect the electrode and cannula connectors. After 1-2 weeks of post-operative recovery, the animals were connected via rotating electrical and fluid connectors respectively to thin electrical cables and to a catheter, itself connected to a precision pump for ICV infusion. The rotating connectors, cables and catheter were supported by a balanced arm to allow the animals full freedom of movement during the recordings, which were made with light: dark cycle of 12:12 hours. Wakefulness, non-REM sleep, and REM sleep were assessed based on EEG and EMG tracings with a technique previously published in detail (Bastianini et al., 2011).

OX-KO mice [2] = test: Wakefulness and sleep (EEG/EMG) after subcutaneous injection in OX-KO mice; type: in vivo, mouse; settings: SC single injection at ZT0, 160 μM in 1 mL saline, vs vehicle; for time spent in REM sleep: light and dark period
Method: Wakefulness, non-REM sleep (NREM) and REM sleep are expressed as a percentage of the recording time. V: vehicle (saline). OX-D: OX-DRAGON. TAT: TAT peptide. ZT: Zeitgeber Time (i.e., time since lights were switched on). Each peptide was injected subcutaneously at the concentration of […] in 1 mL of vehicle at ZT0. *: P<0.05, Wilcoxon test with exact significance (Monte Carlo method) vs. vehicle with correction for false-discovery rate.
as §1
Experiments were performed as in step 3 above, except for the absence of the ICV cannula implant.

OX-KO mice [3] = test: Cataplexy-like episodes after subcutaneous injection in OX-KO mice; type: in vivo, mouse; settings: SC single injection at ZT0, 160 μM in 1 mL saline; for total duration of cataplexy-like episodes during the dark period: vs vehicle
Excerpt: D-CLS: total duration of cataplectic-like episodes during the dark period. V: vehicle (saline). OX-D: OX-DRAGON. TAT: TAT peptide. […] […] The dots indicate values in individual mice.
Such episodes, identified as direct transitions from wakefulness to REM sleep (Scammell et al., 2009), during the dark period are 100% specific for cataplexy in mouse models of NT1 (Fujiki et al., 2009). Correspondence between such events on polysomnographic tracings and abrupt behavioural transitions to a state of immobility was confirmed based on synchronized video tracings in a subset of mice (n=4) during treatment with vehicle and with OX-DRAGON.

[4] = Solubility of the peptide; type: physicochemical
Method: Two batches of OX-DRAGON were synthesized by an external commercial entity (Genscript, (www.genscript.com), with purity ≥98.0% and net peptide content ≥68.0% (FIG. 2). The peptide is highly soluble […] in water, DPBS and DMSO.

[5] = system: control Neuro-2a cells that do not express such receptors (wild-type, WT); test: Intracellular Ca2+ response in control wild-type Neuro-2a cells without OR1/OR2; type: cell-based, mouse; settings: Neuro-2a cells without OR1 and OR2
Method: (§2) Selective expression of the OR1- or OR2-coding genes in the corresponding cell lines and the absence of expression of OR1 and OR2 in WT cells were confirmed by real-time PCR from RNA extracted from the individual DNAse-treated and back-transcribed cells (FIG. 3A). Responses in terms of intracellular [Ca^2+] were assessed in triplicate using Fluo-4 Direct Calcium Assay (Invitrogen) and a Tekan Spark microplate reader, normalizing the results obtained to the maximal responses.

WT Neuro-2a cells = test: Immunofluorescence (anti-OXA 16-33 amide) internalization in WT Neuro-2a cells; type: cell-based, mouse; settings: 74 μM, 1 hour, confocal microscopy
Excerpt: The panels show immunofluorescence imaging (rabbit anti-OXA 16-33 amide primary antibody, 1:200, Phoenix peptides #H-003-36) in Neuro-2a cells without expression of OR1 and OR2. […] The presence of diffuse TRITC fluorescence at the cytoplasmic level was confirmed in confocal microscopy (panel A). […] Calibration bars: 50 μm.
Because crossing the BBB requires the ability to cross endothelial cell membranes, these experiments support the ability of OX-DRAGON to cross the BBB and reach brain tissue after systemic administration.

OR2 [6] = target: T1, OR2 (Homo sapiens, UniProt O43614); test: cell-based
T1 sequence (O43614 1-444): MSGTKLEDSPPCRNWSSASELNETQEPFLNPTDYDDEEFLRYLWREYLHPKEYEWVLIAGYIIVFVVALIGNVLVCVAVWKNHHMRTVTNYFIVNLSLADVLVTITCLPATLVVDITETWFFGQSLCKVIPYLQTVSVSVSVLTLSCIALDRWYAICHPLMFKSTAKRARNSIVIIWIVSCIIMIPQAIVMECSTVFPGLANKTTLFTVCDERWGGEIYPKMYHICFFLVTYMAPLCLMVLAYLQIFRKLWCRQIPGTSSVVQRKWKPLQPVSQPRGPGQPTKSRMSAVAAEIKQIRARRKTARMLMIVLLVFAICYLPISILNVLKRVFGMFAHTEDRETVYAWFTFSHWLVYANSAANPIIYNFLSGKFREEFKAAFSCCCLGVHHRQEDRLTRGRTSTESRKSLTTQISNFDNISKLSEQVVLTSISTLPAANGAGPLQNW

OR1 [7] = target: T2, OR1 (Homo sapiens, UniProt O43613); test: Concentration-response reporter assay kit (Cayman n. 600240/600250) on HEK-293T cells, OR1; type: cell-based; parameters: host or cells: HEK-293T
T2 sequence (O43613 1-425): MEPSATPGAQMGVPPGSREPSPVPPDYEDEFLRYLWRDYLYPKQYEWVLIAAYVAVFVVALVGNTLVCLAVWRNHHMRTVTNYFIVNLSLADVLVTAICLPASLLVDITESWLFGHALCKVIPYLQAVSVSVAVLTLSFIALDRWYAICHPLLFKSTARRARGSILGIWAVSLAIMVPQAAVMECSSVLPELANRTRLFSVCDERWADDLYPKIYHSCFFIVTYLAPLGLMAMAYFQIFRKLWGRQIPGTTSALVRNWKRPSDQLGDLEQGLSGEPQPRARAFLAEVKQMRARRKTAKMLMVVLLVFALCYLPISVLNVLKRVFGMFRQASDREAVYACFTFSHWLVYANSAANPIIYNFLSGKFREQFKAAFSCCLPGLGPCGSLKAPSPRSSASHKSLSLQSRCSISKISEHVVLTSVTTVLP

OR1 [8] = target: T2, OR1; test: Intracellular Ca2+ response (Fluo-4 Direct Calcium Assay) in Neuro-2a cells expressing human OR1; type: cell-based; parameters: expressed in transfected cells; settings: OX-DRAGON 8.5 μM vs OXA 14.8 μM; triplicate; normalized to maximal responses
Excerpt: (§3) Panel A: L, ladder DNA. Panel B: Data are reported as mean values and standard errors of the mean on triplicate measurements. The dots indicate the individual measures. […] The arrows indicate the time of the microinjection.
as §2

OR2 [9] = target: T1, OR2; test: Intracellular Ca2+ response (Fluo-4 Direct Calcium Assay) in Neuro-2a cells expressing human OR2; type: cell-based; parameters: expressed in transfected cells; settings: OX-DRAGON 8.5 μM vs OXA 14.8 μM; triplicate; normalized to maximal responses
Excerpt: as §3, §2

OR1 [10] = target: T2, OR1; parameters: host or cells: HEK-293T; settings: Lang et al., 2004; cited from earlier work
OR2 [11] = target: T1, OR2; parameters: host or cells: HEK-293T; settings: Lang et al., 2004; cited from earlier work

Row | Substance | REM sleep time (OX-KO mice [1]) | non-REM sleep time (OX-KO mice [1]) | wakefulness time (OX-KO mice [1]) | time spent awake (OX-KO mice [2]) | time spent in non-REM sleep (OX-KO mice [2]) | time spent in REM sleep (OX-KO mice [2]) | total duration of cataplexy-like episodes during the dark period (OX-KO mice [3]) | further results
1 | YGRKKRRQRRR [TAT, cell penetrating TAT peptide of type-1 human immunodeficiency virus (HIV), reference compound] | significant reduction in REM sleep time during the dark period | did not evoke significant effects | did not evoke significant effects | did not result in significant effects | did not result in significant effects | did not result in significant effects | not replicated | 
2 | YGRKKRRQRRRPDCCRQKTCSCRLYELLHGAGNHAAGILTL-NH2 (disulfide 14-20, 15-22) [OX-DRAGON] | marked reduction in REM sleep time | decreased non-REM sleep time | increased wakefulness time | without exerting significant effects | without exerting significant effects | significantly decrease | significantly decrease | solubility ([4]; in DMSO): 10000 µg/mL; solubility ([4]; in DPBS): 10000 µg/mL; solubility ([4]; in water): 10000 µg/mL; intracellular [Ca2+] response of WT cells [5]: absence of significant effects; internalization into cells (intracellular/cytoplasmic fluorescence signal) (WT Neuro-2a cells): cytoplasmic signal of diffused fluorescence; also recorded: presence of TRITC fluorescence signal at the intracellular level; duration of individual cataplexy-like episodes (OX-KO mice [3]): no significant changes; number of cataplexy-like episodes (OX-KO mice [3]; P=0.034 one-tailed Wilcoxon): reduction in the number of cataplexy-like episodes; pEC50 (OR2 [6]): 7.98; pEC50 (OR1 [7]; HEK-293T cells, reporter assay, Hill equation fit): 7.17; OR1/OR2 EC50 ratio (OR1 [7]; receptor selectivity, EC50 OR1 / EC50 OR2): 6.47 and 6.5; intracellular [Ca2+] response of OR1-expressing cells (OR1 [8]): close to the maximal ones evoked by OXA; intracellular [Ca2+] response of OR2-expressing cells (OR2 [9]): close to the maximal ones evoked by OXA
3 | PDCCRQKTCSCRLYELLHGAGNHAAGILTL [4-33 truncated sequence of OXA] |  |  |  |  |  |  |  | EC50 on OR1 relative to the native OXA protein (OR1 [10]): approximately 1/7; EC50 on OR2 relative to the native OXA protein (OR2 [11]): approximately 1/7
